Assay results as given in patent publication US6737383B1, “Herbicidal oxadiazolidines” (priority 1999, dated 2004).

Tests used:
corn = assay: Test B pre/postemergence corn; type: in vivo, Zea mays
In short: (§1)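 Response is a visual 0-to-10 score relative to untreated plants, where 0 means no effect and 10 means complete control, taken twelve to sixteen days after application. Treatments went onto soil at planting and onto foliage of 1- to 4-leaf plants, using a surfactant-containing non-phytotoxic solvent.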

smallflower flatsedge = assay: Test B flood test smallflower flatsedge; type: in vivo, Cyperus difformis
In short: (§2)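 Read-out is a visual response score from 0 (no effect) to 10 (complete control), assigned by comparison with untreated controls. Treatment was applied at the 2-leaf stage, and plants stayed in the greenhouse for twelve to sixteen days before scoring.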

rape = assay: Test B pre/postemergence rape; type: in vivo, Brassica napus
In short: as §1

bedstraw = assay: Test B pre/postemergence bedstraw; type: in vivo, Galium aparine
In short: as §1

purple nutsedge = assay: Test B pre/postemergence purple nutsedge; type: in vivo, Cyperus rotundus
In short: as §1

duck salad = assay: Test B flood test duck salad; type: in vivo, Heteranthera limosa
In short: as §2

blackgrass = assay: Test B pre/postemergence blackgrass; type: in vivo, Alopecurus myosuroides
In short: as §1

crabgrass = assay: Test B pre/postemergence crabgrass; type: in vivo, Digitaria sanguinalis
In short: as §1

bamyardgrass = assay: Test B flood test barnyardgrass; type: in vivo, Echinochloa crus-galli
In short: as §2

rice = assay: Test B flood test rice; type: in vivo, Oryza sativa
In short: as §2

giant foxtail = assay: Test B pre/postemergence giant foxtail; type: in vivo, Setaria faberii
In short: as §1

surinam grass = assay: Test B pre/postemergence surinam grass; type: in vivo, Brachiaria decumbens
In short: as §1

velvetleaf = assay: Test B pre/postemergence velvetleaf; type: in vivo, Abutilon theophrasti; settings: for Plant response rating, Velvetleaf: Rate 250 g/ha
In short: as §1

wild oat = assay: Test B pre/postemergence wild oat; type: in vivo, Avena fatua; settings: for Plant response rating, Wild oats: Rate 250 g/ha
In short: as §1

sugar beet = assay: Test B pre/postemergence sugar beet; type: in vivo, Beta vulgaris; settings: for Plant response rating, Sugarbeets: Rate 250 g/ha
In short: as §1

wheat = assay: Test B pre/postemergence wheat; type: in vivo, Triticum aestivum; settings: for Plant response rating, Wheat: Rate 250 g/ha
In short: as §1

[1] = Postemergence, Rate 125 g/ha, scale of 0 to 10 where 0 is no effect and 10 is complete control
[2] = Postemergence, Rate 250 g/ha, scale 0 to 10, 0 no effect, 10 complete control
[3] = Preemergence, Rate 62 g/ha, scale 0 to 10 (0 no effect, 10 complete control)
[4] = Preemergence, Rate 125 g/ha, scale 0 to 10 (0 no effect, 10 complete control)
[5] = Preemergence, Rate 250 g/ha, scale of 0 to 10 where 0 is no effect and 10 is complete control
[6] = Preemergence, Rate 500 g/ha, scale 0 to 10 (0 no effect, 10 complete control)
[7] = Rate 62 g/ha, Postemergence, scale of 0 to 10 where 0 is no effect and 10 is complete control
[8] = Rate 500 g/ha, Postemergence, scale 0 to 10, 0 no effect, 10 complete control
[9] = Postemergence (flood test species), Rate 125 g/ha, scale of 0 to 10 where 0 is no effect and 10 is complete control
[10] = Rate 62 g/ha, Postemergence section, flood test species, scale of 0 to 10 where 0 is no effect and 10 is complete control
[11] = Rate 250 g/ha, Postemergence (flood test), scale 0 to 10, 0 is no effect, 10 is complete control
[12] = Rate 250 g/ha, headed Pre-emergence (flood test species), scale 0 to 10 (0 no effect, 10 complete control)
[13] = Rate 500 g/ha, headed Pre-emergence (flood test species), scale 0 to 10 (0 no effect, 10 complete control)
[14] = Rate 500 g/ha, listed under Postemergence (flood test species), scale 0 to 10, 0 no effect, 10 complete control
[15] = Rate 2000 g/ha, Pre-emergence (as headed), scale 0 to 10
[16] = Postemergence, Rate 62 g/ha, scale 0 to 10, 0 is no effect, 10 is complete control
[17] = Rate 125 g/ha, Postemergence, scale 0 to 10, 0 no effect, 10 complete control
[18] = Rate 1000 g/ha, Pre-emergence (as headed), scale 0 to 10
[19] = flood test, listed under Postemergence, Rate 250 g/ha, scale 0 to 10, 0 no effect, 10 complete control
[20] = Preemergence, Rate 125 g/ha, 0 is no effect, 10 is complete control
[21] = Preemergence, scale of 0 to 10 where 0 is no effect and 10 is complete control
[22] = Postemergence, scale 0 to 10, 0 is no effect, 10 is complete control

CC(C)N(C(=O)n1oc(=O)n(C(C)C)c1=O)c1ccccc1 [Compound 113]
Corn plant response rating (corn; [1]): 1
Corn plant response rating (corn; [2]): 5
Corn plant response rating (corn; [3]): 3
Plant response rating, Corn (corn; [4]): 4
Plant response rating, Corn (corn; [5]): 8
Corn plant response rating (corn; [6]): 10
Corn plant response rating (corn; [7]): 0
Corn plant response rating (corn; [8]): 6
S. Flatsedge plant response rating (smallflower flatsedge; [9]): 0
S. Flatsedge plant response rating (smallflower flatsedge; Pre-emergence, Rate 1000 g/ha, scale 0 to 10 (0 no effect, 10 complete control)): 0
S. Flatsedge plant response rating (smallflower flatsedge; [10]): 0
Plant response rating, S. Flatsedge (smallflower flatsedge; [11]): 0
S. Flatsedge plant response rating (smallflower flatsedge; [12]): 0
Plant response rating, S. Flatsedge (smallflower flatsedge; [13]): 0
S. Flatsedge plant response rating (smallflower flatsedge; [14]): 0
S. Flatsedge plant response rating (smallflower flatsedge; [15]): 9
Rape plant response rating (rape; [1]): 3
Rape plant response rating (rape; [2]): 7
Rape plant response rating (rape; [3]): 4
Plant response rating, Rape (rape; [4]): 7
Plant response rating, Rape (rape; [5]): 10
Rape plant response rating (rape; [6]): 10
Rape plant response rating (rape; [7]): 0
Rape plant response rating (rape; [8]): 7
Bedstraw plant response rating (bedstraw; [16]): 1
Bedstraw plant response rating (bedstraw; [2]): 7
Bedstraw plant response rating (bedstraw; [3]): 4
Plant response rating, Bedstraw (bedstraw; [4]): 6
Plant response rating, Bedstraw (bedstraw; [5]): 7
Bedstraw plant response rating (bedstraw; [6]): 8
Bedstraw plant response rating (bedstraw; [17]): 4
Nutsedge plant response rating (purple nutsedge; [1]): 0
Nutsedge plant response rating (purple nutsedge; [2]): 0
Nutsedge plant response rating (purple nutsedge; [3]): 0
Plant response rating, Nutsedge (purple nutsedge; [4]): 0
Plant response rating, Nutsedge (purple nutsedge; [5]): 0
Nutsedge plant response rating (purple nutsedge; [6]): 0
Nutsedge plant response rating (purple nutsedge; [7]): 0
Nutsedge plant response rating (purple nutsedge; [8]): 2
Ducksalad plant response rating (duck salad; [9]): 0
Ducksalad plant response rating (duck salad; [10]): 0
Ducksalad plant response rating (duck salad; [12]): 0
Plant response rating, Ducksalad (duck salad; [13]): 0
Ducksalad plant response rating (duck salad; [14]): 0
Ducksalad plant response rating (duck salad; [18]): 1
Ducksalad plant response rating (duck salad; [15]): 8
Ducksalad plant response rating (duck salad; [19]): 0
Blackgrass plant response rating (blackgrass; [1]): 8
Blackgrass plant response rating (blackgrass; [2]): 8
Blackgrass plant response rating (blackgrass; [3]): 8
Plant response rating, Blackgrass (blackgrass; [4]): 9
Plant response rating, Blackgrass (blackgrass; [5]): 10
Blackgrass plant response rating (blackgrass; [6]): 10
Blackgrass plant response rating (blackgrass; [7]): 8
Blackgrass plant response rating (blackgrass; [8]): 8
Crabgrass plant response rating (crabgrass; [1]): 9
Crabgrass plant response rating (crabgrass; [2]): 9
Crabgrass plant response rating (crabgrass; [3]): 7
Plant response rating, Crabgrass (crabgrass; [4]): 10
Plant response rating, Crabgrass (crabgrass; [5]): 10
Crabgrass plant response rating (crabgrass; [6]): 10
Crabgrass plant response rating (crabgrass; [7]): 9
Crabgrass plant response rating (crabgrass; [8]): 9
Barnyardgrass plant response rating (bamyardgrass; [16]): 0
Barnyardgrass plant response rating (bamyardgrass; Rate 125 g/ha, Postemergence section (flood test species), scale 0 to 10, 0 no effect, 10 complete control): 0
Barnyardgrass plant response rating (bamyardgrass; [12]): 0
Plant response rating, Barnyardgrass (bamyardgrass; [13]): 0
Barnyardgrass plant response rating (bamyardgrass; [14]): 0
Barnyardgrass plant response rating (bamyardgrass; [18]): 0
Barnyardgrass plant response rating (bamyardgrass; Rate 2000 g/ha, Pre-emergence (as headed), scale 0 to 10, 0 no effect, 10 complete control): 9
Barnyardgrass plant response rating (bamyardgrass; [19]): 0
Rice plant response rating (rice; [9]): 0
Rice plant response rating (rice; [10]): 0
Plant response rating, Rice (rice; [11]): 0
Rice plant response rating (rice; [12]): 0
Plant response rating, Rice (rice; [13]): 0
Rice plant response rating (rice; [14]): 0
Rice plant response rating (rice; [18]): 0
Rice plant response rating (rice; [15]): 7
Giant foxtail plant response rating (giant foxtail; [1]): 9
Giant foxtail plant response rating (giant foxtail; [2]): 9
Giant foxtail plant response rating (giant foxtail; [3]): 9
Plant response rating, Giant foxtail (giant foxtail; [4]): 10
Plant response rating, Giant foxtail (giant foxtail; [5]): 10
Giant foxtail plant response rating (giant foxtail; [6]): 10
Giant foxtail plant response rating (giant foxtail; [7]): 9
Giant foxtail plant response rating (giant foxtail; [8]): 9
B. signalgrass plant response rating (surinam grass; [16]): 4
B. signalgrass plant response rating (surinam grass; [2]): 8
B. signalgrass plant response rating (surinam grass; [3]): 7
Plant response rating, B. signalgrass (surinam grass; [4]): 9
Plant response rating, B. signalgrass (surinam grass; [5]): 10
B. signalgrass plant response rating (surinam grass; [6]): 10
B. signalgrass plant response rating (surinam grass; [17]): 7
B. signalgrass plant response rating (surinam grass; Rate 500 g/ha, Postemergence, scale of 0 to 10 where 0 is no effect and 10 is complete control): 8
Velvetleaf plant response rating (velvetleaf; [1]): 1
Velvetleaf plant response rating (velvetleaf; [3]): 6
Velvetleaf plant response rating (0 to 10 scale) (velvetleaf; [20]): 7
Plant response rating, Velvetleaf (velvetleaf; [21]): 8
Velvetleaf plant response rating (velvetleaf; [6]): 8
Velvetleaf plant response rating (velvetleaf; [7]): 0
Plant response rating, Velvetleaf (velvetleaf; [22]): 7
Velvetleaf plant response rating (velvetleaf; [8]): 8
Wild oats plant response rating (wild oat; [1]): 2
Wild oats plant response rating (wild oat; [3]): 6
Wild oats plant response rating (0 to 10 scale) (wild oat; [20]): 10
Plant response rating, Wild oats (wild oat; [21]): 10
Wild oats plant response rating (wild oat; [6]): 10
Wild oats plant response rating (wild oat; [7]): 1
Plant response rating, Wild oats (wild oat; [22]): 6
Wild oats plant response rating (wild oat; [8]): 6
Sugarbeets plant response rating (sugar beet; [1]): 4
Sugarbeets plant response rating (sugar beet; [3]): 7
Sugarbeets plant response rating (0 to 10 scale) (sugar beet; [20]): 8
Plant response rating, Sugarbeets (sugar beet; [21]): 9
Sugarbeets plant response rating (sugar beet; [6]): 10
Sugarbeets plant response rating (sugar beet; [7]): 4
Plant response rating, Sugarbeets (sugar beet; [22]): 5
Sugarbeets plant response rating (sugar beet; [8]): 6
Wheat plant response rating (wheat; [1]): 3
Wheat plant response rating (wheat; [3]): 2
Wheat plant response rating (0 to 10 scale) (wheat; [20]): 4
Plant response rating, Wheat (wheat; [21]): 7
Wheat plant response rating (wheat; [6]): 8
Wheat plant response rating (wheat; [7]): 1
Plant response rating, Wheat (wheat; [22]): 4
Wheat plant response rating (wheat; [8]): 6
